Key:
IFN-β = test: YFP (IFN-β) expression in DRG neurons of Ifnb1YFP/YFP reporter mice; type: in vivo, mouse
Procedure: Genetic mouse models: All mouse procedures were approved by the Duke University Institutional Animal Care and Use Committee (IACUC) and complied with relevant ethical guidelines. Mice were housed in an animal facility approved by the Association for Assessment and Accreditation of Laboratory Animal Care (AAALAC) under a 12 h light/dark cycle with food and water available ad libitum. All commercially-available genetic mouse models were obtained from Jackson Labs and maintained on a C57BL/6J background, including: Ifnb1YFP reporter mice (strain #010818) 1, STING “goldenticket” knockout mice 2 (STINGgt/gt; strain #017537), STING floxed/conditional knockout mice 3 (STINGfx/fx; strain #031670), Ifnar1 global knockout mice (Ifnar1−/−; strain #028288), Ifnar1 floxed/conditional knockout mice 4 (Ifnar1fx/fx; strain #028256), cGAS knockout mice 5 (cGAS−/−; strain #026554), and RIG-I knockout mice (RIG-I−/−; strain #46070-JAX). Nav1.8-Cre mice 6, also maintained on a C57BL/6J background, were a gift from Rohini Kuner (University of Heidelberg). NOD.CB17-Prkdcscid mice were also obtained from Jackson Labs (strain #001303) and maintained in a NOD/ShiLtSz genetic background. Unless otherwise noted, all experiments were conducted in adult (8-12-week-old) mice. Animals were randomly assigned to each experimental group. Both males and females were included in each group in a sex-matched manner. […]

[1] = system: tumor-infiltrating lymphocytes (TILs); test: Flow cytometry of tumor-infiltrating lymphocytes in bone marrow; type: in vivo, mouse; conditions: 24 h after second injection
Procedure: Flow cytometry. For analysis of immune subsets present within the bone marrow tumor microenvironment, bone marrow was collected as previously described followed by removal of RBC cells using RBC lysis buffer (Sigma, R7757). Cells were subsequently washed with PBS and resuspended in 2% paraformaldehyde in PBS for 10 minutes. Fixed cells were washed several times with PBS, followed by incubation in blocking buffer (1% anti-mouse-CD16/CD32, 2.4 G2, 2% FBS, 5% NRS, 1% triton ×100 and 2% NMS in HBSS; BD Bioscience) for 1 h at room temperature. Cells were subsequently stained with IL-17-FITC (1:20, rat, Miltenyi Biotec, 130-102-262), CD-3 APC/cy7 (1:200, rat, Biolegend, 100221), CD-4 APC (1:200, rat, Biolegend, 100411), FoxP3-PE (1:20, human, Miltenyl Biotec, 130-111-678), CD8a-FITC (1:200, rat, Biolegend, 100705), and CD11b-PE(1:200, rat, Biolegend, 101207) in blocking buffer for 1 h at room temperature. After staining, cells were washed in PBS with EDTA. Flow cytometry events were acquired by a BD FACS Canto II flow cytometer using the BD FACS Diva 8 software (BD Bioscience). Data were analyzed using Cytobank software (https://www.cytobank.org/cytobank).

| Compound | YFP (IFN-β) expression in DRG neurons (IFN-β) | proportion of CD4^+ T cells in bone marrow [1] | proportion of CD8^+ T cells in bone marrow [1] | proportion of T^reg cells in bone marrow [1] |
| --- | --- | --- | --- | --- |
| Nc1ncnc2c1ncn2[C@@H]1O[C@@H]2COP(=O)([S-])O[C@@H]3[C@H](O)[C@@H](COP([O-])(=S)O[C@H]2[C@H]1O)O[C@H]3n1cnc2c(N)ncnc21.[Na+].[Na+] (stereo partly drawn) [ADU-S100, (2′-5′)-[P(R)]-5′-O-[(R)-hydroxymercaptophosphinyl]-P-thioadenylyl-adenosine cyclic dinucleotide] | increased after ADU-S100 treatment |  |  |  |
| Cc1ccc2c(=O)c3cccc(CC(=O)O)c3oc2c1C [DMXAA, 2-(5,6-dimethyl-9-oxo-9H-xanthen-4-yl)acetic acid] |  | without significantly changing the proportion of (CD11b^− CD3^+) CD4^+ T cells | significantly increased the proportion of (CD11b^− CD3^+) CD8^+ T cells | decreased the proportion of T^reg cells |

From US20230158057A1, “COMPOSITIONS AND METHODS FOR THE TREATMENT OF PAIN” (Duke University, priority 2020, published 2023)
